Results taken from US20260325654A1, “METHODS AND COMPOSITIONS FOR TARGETED PROTEIN DEGRADATION” (Ranok Therapeutics (Hangzhou) Co. Ltd., priority 2023, published 2026).
Counter-ions that a name gives are not always drawn.

Experiments:
Format in all cases: cell-based, human
[1] = tested on: AGS; assay: CellTiter-Glo Reagent cancer cell line proliferation assay, AGS; conditions: KRAS(G12D) heterozygous
From the text: (§1) The following cancer cell lines were employed: • AsPC-1 human pancreatic adenocarcinoma, homozygous KRAS(G12D), (ATCC, #CRL-1682); A-427 human lung carcinoma, heterozygous KRAS(G12D), (ATCC, #HTB-53); AGS human gastric adenocarcinoma, heterozygous KRAS(G12D), (ATCC, #CRL-1739); GP2D human colon adenocarcinoma, heterozygous KRAS(G12D), (Sigma Aldrich, 95090714); SW1990 human pancreatic adenocarcinoma, homozygous KRAS(G12D), (ATCC, #CRL2172); LU65A human lung giant cell carcinoma, heterozygous KRAS(G12C), (JCRB Cell Bank, #JCRB0054); NCIH727 human lung carcinoid, heterozygous KRAS(G12V), (ATCC, #CRL-5815); MKN1 human gastric adenosquamous carcinoma KRAS (wt), (JCRB Cell Bank, #JCRB0252). Cell lines were cultured according to ATCC, JCRB and Sigma Aldrich recommendations.
(§2) Cells were plated in 96-well tissue culture plates at 4,000 cells/well and incubated at 37° C./5% CO2 for 24 hr in 100 μl of media. 3-fold serial dilutions of each test compound were prepared ranging from 20 μM to 1.02 nM. Cells were then treated with test compounds at various concentrations with a final concentration of 0.5% DMSO/well, and then incubated at 37° C./5% CO2 for 24 hr. 100 μl of CellTiter-Glo® Reagent (Promega Corporation, Madison, WI) was added to each well and processed according manufacturer's protocol. Results were analyzed and IC50-values were calculated in GraphPad 7 software.

[2] = tested on: LU65A; assay: CellTiter-Glo Reagent cancer cell line proliferation assay, LU65A; conditions: KRAS(G12C) heterozygous
From the text: as §1, §2

[3] = tested on: NCIH727; assay: CellTiter-Glo Reagent cancer cell line proliferation assay, NCIH727; conditions: NCIH727, KRAS(G12V) heterozygous
From the text: as §1, §2

Structure (SMILES)	IC50 ([1]; Homo sapiens, 24 h) [nM]	IC50 ([2]; Homo sapiens, 24 h) [nM]	IC50 ([3]; Homo sapiens, NCI-H727, 24 h) [nM]	IC50 ([1]; 24 hr) [nM]	IC50 ([2]; 24 hr) [nM]	IC50 ([3]; 24 hr) [nM]
C#Cc1c(F)ccc2cc(O)cc(-c3nc(OC)c4c(N5CC6CCC(C5)N6C(=O)CC(C)C#N)nc(OCC5(CN6CCN(CC7CCN(c8ccc9c(N%10CCC(=O)NC%10=O)nn(C)c9c8)CC7)CC6)CC5)nc4c3F)c12 (stereo not shown) [Compound 152]	< 100	< 100	< 100			
C#Cc1c(F)ccc2cc(O)cc(-c3ncc4c(N5CC6CCC(C5)N6C(=O)NC5CCC5)nc(OCC5(CN6CCN(CC7CCN(c8ccc9c(c8)CN(C8CCC(=O)NC8=O)C9=O)CC7)CC6)CC5)nc4c3F)c12 (stereo not shown) [Compound 128]	< 100	< 100	< 100			
C#Cc1c(F)ccc2cc(O)cc(-c3ncc4c(N5CC6CCC(C5)N6C(=O)CC(C)C#N)nc(OCC5(CN6CC7CC7C6)CC5)nc4c3OCc3ccc(-c4cn([C@H](C(=O)N5C[C@H](O)C[C@H]5C(=O)N[C@@H](CO)c5ccc(-c6ccnn6CC)cc5)C(C)C)nn4)cc3)c12 (stereo partly shown) [Compound 138]				> 1000	> 1000	> 1000
N#Cc1c(N)sc2c1C1(CCC2)CCCc2c(-c3nc(Cl)cc(OCC4(CN5CCN(CC6CCN(c7ccc8c(c7)CN(C7CCC(=O)NC7=O)C8=O)CC6)CC5)CC4)n3)noc21 (stereo not shown) [Compound 156]	< 100	< 100	< 100			
C#Cc1c(F)ccc2cc(O)cc(-c3nc(OC)c4c(N5CCCO[C@H]6C[C@H]65)nc(OCC5(CN6CCN(CC7CCN(c8ccc9c(c8)CN(C8CCC(=O)NC8=O)C9=O)CC7)CC6)CC5)nc4c3F)c12 (stereo partly shown) [Compound 164]	< 100	< 100	< 100			
C#Cc1c(F)ccc2cc(O)cc(-c3ncc4c(N5CC6CCC(C5)N6C(=O)Cn5cc(COCCOCCOCCNc6ccc7c(c6)CN(C6CCC(=O)NC6=O)C7=O)nn5)nc(OCC56CCCN5C[C@@H](F)C6)nc4c3F)c12 (stereo partly shown) [Compound 141]	< 100	< 100	< 100			
C#Cc1c(F)ccc2cc(O)cc(-c3ncc4c(N5CCCOC6CC65)nc(OCC5(CN6CCN(CC7CCN(c8ccc9c(c8)CN(C8CCC(=O)NC8=O)C9=O)CC7)CC6)CC5)nc4c3F)c12 (stereo not shown) [Compound 139]	> 1000	> 1000	> 1000			
C#Cc1c(F)ccc2cc(O)cc(-c3nc(OC)c4c(N5CC6CCC(C5)N6C(=O)CCC#N)nc(OCC5(CN6CCC(CN7CCC(N8Cc9cc%10c(cc9C8)C(=O)N(C8CCC(=O)NC8=O)C%10)CC7)CC6)CC5)nc4c3F)c12 (stereo not shown) [Compound 163]	< 100	< 100	< 100			
C#Cc1c(F)ccc2cc(O)cc(-c3nc(OC)c4c(N5CCCO[C@@H]6C[C@@H]65)nc(OCC5(CN6CCN(CC7CCN(c8ccc9c(c8)CN([C@H]8CCC(=O)NC8=O)C9=O)CC7)CC6)CC5)nc4c3F)c12 [Compound 165]	< 100	< 100	< 100			
C#Cc1c(F)ccc2cc(O)cc(-c3nc(OC)c4c(N5CCCOCC5)nc(OCC5(CN6CCN(CC7CCN(c8ccc9c(c8)CN(C8CCC(=O)NC8=O)C9=O)CC7)CC6)CC5)nc4c3F)c12 (stereo not shown) [Compound 127]	< 100	< 100	< 100			
C#Cc1c(F)ccc2cc(O)cc(-c3nc(OC)c4c(N5CC6CCC(C5)N6C(=O)CCC#N)nc(OCC5(CN6CCN(CC7CCN(c8ccc9c(N%10CCC(=O)NC%10=O)nn(C)c9c8)CC7)CC6)CC5)nc4c3F)c12 [Compound 159]	< 100	< 100	< 100			
C#Cc1cccc2cccc(-c3ncc4c(N5CC6CCC(C5)N6)nc(OCCN5CCN(Cc6ccc7c(c6)C(=O)N(C6CCC(=O)NC6=O)C7=O)CC5)nc4c3F)c12 (stereo not shown) [Compound 1, 5-((4-(2-((4-(3,8-diazabicyclo[3.2.1]octan-3-yl)-7-(8-ethynylnaphthalen-1-yl)-8-fluoropyrido[4,3-d]pyrimidin-2-yl)oxy)ethyl)piperazin-1-yl)methyl)-2-(2,6-dioxopiperidin-3-yl) isoindoline-1,3-dione hydrochloride]	> 1000					
